Values quoted from earlier work as cited in patent publication US6667408B2, “Process for preparing cyclic polyethers” (Japan Science and Technology Corporation, priority 2000, dated 2003).

System: mice
Conditions: i.p.

C=CC/C=C\C=C/[C@H]1O[C@H]2C[C@H]3O[C@H]4CC[C@H]5O[C@H]6C[C@@]7(C)O[C@@]8(C)[C@@H](O)C[C@H](CCCO)O[C@@H]8C[C@@H]7O[C@@H]6C[C@@H]5O[C@]4(C)C[C@]3(C)O[C@@H]2C=C[C@]1(C)O [gambierol]
LD50: 0.05 mg/kg
